The target of the experiment is APH(9)-Ia (Legionella pneumophila, UniProt O06916). Nature of the experiment: biochemical.

Experimental findings from article PMC3090406, “Crystal Structures of Two Aminoglycoside Kinases Bound with a Eukaryotic Protein Kinase Inhibitor” (PLoS ONE, 2011) are described below.

APH(9)-Ia, sequence (O06916 1-331): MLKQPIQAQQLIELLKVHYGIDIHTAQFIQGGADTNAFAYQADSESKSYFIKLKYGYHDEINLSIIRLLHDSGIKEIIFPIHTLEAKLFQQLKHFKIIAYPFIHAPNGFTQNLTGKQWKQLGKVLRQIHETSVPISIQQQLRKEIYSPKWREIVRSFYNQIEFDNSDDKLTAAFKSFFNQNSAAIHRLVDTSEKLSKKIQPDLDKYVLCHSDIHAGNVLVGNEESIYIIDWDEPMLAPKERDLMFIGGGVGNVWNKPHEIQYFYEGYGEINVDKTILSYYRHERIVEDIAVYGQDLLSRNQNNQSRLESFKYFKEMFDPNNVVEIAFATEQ

In general, Ki refers to the dissociation constant of the complex between target and ligand, obtained from inhibition or displacement. A high value points to a looser hold on the target. With `NCCNS(=O)(=O)c1ccc(Cl)c2ccncc12` [CKI-7, N-(2-aminoethyl)-5-chloro-isoquinoline-8-sulfonamide], the Ki was 159 ± 11 µM.
